# Measurements as given in article PMC10488193, “Evaluation of the Chemical Stability, Membrane Permeability and Antiproliferative Activity of Cyclic Diarylheptanoids from European Hornbeam (Carpinus betulus L.)” (International Journal of Molecular Sciences, 2023).
# Where “and” joins values, the source holds several entries; their conditions need not be identical. Equal values may be shown once. Entries after “also recorded” stand apart in the source; their conditions may differ. Read-outs that look alike come from different tables or passages of the source. Marks after values point to notes of the source that are not given here.
# Legend:
# [1] = Aqueous stability at biorelevant pH values, 37 °C (UHPLC-DAD); format: physicochemical; conditions: for half-life at 100 µM / degradation rate constant k: first-order; for half-life at 100 µM: read-out: half-life t1/2 (converted); for aqueous stability at pH 1.2, 6.8, 7.4 (in words): 37 °C, up to 81 h
# Experimental: For the analysis of the samples from the chemical stability as well as the PAMPA studies, sample concentrations were determined using our previously developed ultrahigh-performance liquid chromatography–diode array detection (UHPLC-DAD) method validated for linearity, precision and accuracy. Briefly, an ACQUITY UPLC H-Class PLUS System hyphenated with a quaternary solvent delivery pump (QSM), an auto-sampler manager (FTN), a column compartment (CM) and a photodiode array (PDA) detector (Waters Corporation) was employed. Stationary phase: Acquity BEH C18 column (100 × 2.1 mm i.d., 1.7 µm; Waters Corporation), column temperature: 30 °C. The mobile phase consisted of 0.3% acetic acid in water (eluent A) and acetonitrile (eluent B). The following gradient elution was applied at a flow rate of 0.3 mL/min: 0 min 12.0% B, 19.0 min 13.5% B, 25.5 min 75.0% B, 26.0 min 100.0% B, 28.0 min 100.0% B, 28.5 min 12.0% B.
# The buffers modelling the gastric fluid (pH 1.2), the intestinal fluid (pH 6.8) and the blood and the tissues (pH 7.4) were prepared as follows. Buffer pH = 1.2: 1.0 g NaCl and 3.5 mL HCl dissolved in distilled water, final volume: 500.0 mL. Buffer pH = 6.8: 20.2 g Na2HPO4∙7H2O and 3.4 g NaH2PO4∙H2O dissolved in distilled water, final volume: 1000.0 mL, pH adjustment with 0.5 M NaOH or 0.5 M HCl. Buffer pH = 7.4: one PBS tablet dissolved in 200.0 mL distilled water. The stock solutions of compounds 1–4 were prepared with dimethyl sulfoxide (DMSO) at a concentration of 10.0 mM. The stock solutions were diluted 100-fold with each buffer separately to obtain the working solutions (297.0 μL buffer + 3.0 μL stock solution). All working solutions were filtered through Phenex-RC 15 mm, 0.2 μm syringe filters (Gen-Lab Ltd., Budapest, Hungary). The samples were incubated for 81 h at 37 °C; aliquots were taken for analysis every 9 h in accordance with the time required to quantify the analytes of interest in one set of samples. The total incubation time of 81 h was applied to obtain data for ten measurement points. The previously described UHPLC-DAD method was used to examine the changes in compound concentrations (see Section 3.4).
# For the determination of pH stability, the initial AUC values were compared with the data after 9 and 81 h using paired-sample t test; significant difference was reported at p < 0.05. The effects of the pH were analysed through one-way analysis of variance (ANOVA) followed by Tukey’s post hoc HSD test (p < 0.05). All experiments were performed in triplicates (n = 3).
# We used the following equations to calculate the first-order reaction rate constant (k) and the half-life (t1/2) indicating the time required to reduce the concentration of diarylheptanoids by 50% [29]:ln (ct/c0) = −k × t(1) t1/2 = −ln 0.5 × k^−1(2) where ct is the concentration of the diarylheptanoids at time t, c0 is the initial concentration, k is the reaction rate constant, t is the treatment time.
# [2] = design: method as in PMID 12350169; conditions: cited from earlier work
# PAMPA-GI = format: in vitro ADME; conditions: for Papp at 4 h, 100 µM: PAMPA, read-out: logPe PAMPA-GI (n = 9) (converted)
# Experimental: A parallel artificial membrane permeability assay (PAMPA) was used to determine the effective permeability (Pe) for the Carpinus diarylheptanoids. Stock solutions of the isolated compounds (10 mM in DMSO) were diluted with the defined buffer (pH 7.4 for the PAMPA-BBB and pH 6.8 for the PAMPA-GI assays) to obtain the donor solutions (composition: 297.0 μL buffer + 3.0 μL stock solution). Donor solutions were filtered through Phenex-RC 15 mm, 0.2 μm syringe filters (Gen-Lab Ltd., Budapest, Hungary).
# For the PAMPA-BBB test, 5 μL of porcine polar brain lipid extract (PBLE) solution (16.0 mg PBLE + 8.0 mg cholesterol dissolved in 600.0 μL n-dodecane) was applied for each well of the 96-well polycarbonate-based filter donor plates (top plate) (Multiscreen™-IP, MAIPN4510, pore size 0.45 μm; Merck). For the PAMPA-GI assay, the wells of the top plate were coated with 5 μL of the mixture of 8.0 mg phosphatidylcholine + 4.0 mg cholesterol dissolved in 300.0 μL n-dodecane. The 150.0 μL aliquots of the filtrated donor solutions were placed on the membrane. The 96-well PTFE acceptor plates (bottom plates) (Multiscreen Acceptor Plate, MSSACCEPTOR; Merck), were filled with 300.0 μL buffer solution (0.01 M PBS buffer, pH 7.4). […]
# After the incubation, the plates were separated and the compound concentrations in the donor (CD(t)) and acceptor (CA(t)) solutions were determined using the aforementioned UHPLC-DAD method (see Section 3.4). […] The effective permeability and the membrane retention in the PAMPA-BBB and the PAMPA GI experiments were calculated by Equations (3) and (4), respectively:(3) Pe=−2.303/A(t−τSS)·VA·VD/VA+VD·lg1−VA+VD/1−MR·VD×CAt/CD0 (4) Pe=−2.303/A(t−τSS))·1/1+ra·lg−ra+1+ra/1−MR×CDt/CD0 where Pe is the effective permeability coefficient (cm/s), A is the filter area (0.24 cm^2), VD and VA are the volumes in the donor (0.15 cm^3) and acceptor phases (0.30 cm^3), t is the incubation time (s), τSS is the time (s) to reach steady state (240 s), CD(t) is the concentration (mol/cm^3) of the compound in the donor phase at time t, CD(0) is the concentration (mol/cm^3) of the compound in the donor phase at time 0, MR is the estimated membrane retention factor (the estimated mole fraction of solute lost to the membrane) and ra is the sink asymmetry ratio (gradient-pH-induced), defined as:(5) ra=VD/VA×Pe(A→D)/Pe(D→A) (6) MR=1−CDt/CD0−VA/VDCAt/CD0
# All experiments were performed in three triplicates on three consecutive days (n = 9); caffeine standard was used as positive, while rutin was used as negative control. Clog P values were calculated using ACD/ChemSketch (Freeware) 2 January 2020 (Advanced Chemistry Development, Inc., Toronto, ON, Canada).
# [3] = sodium phosphate buffer, pH 6.8, 37 °C
"relative concentration compared to the initial value ([1]; 9 h, pH 1.2, 37 °C)","relative concentration compared to the initial value ([1]; 9 h, pH 6.8, 37 °C)","relative concentration compared to the initial value ([1]; 9 h, pH 7.4, 37 °C)","relative concentration compared to the initial value ([1]; 81 h, pH 1.2, 37 °C)","relative concentration compared to the initial value ([1]; 81 h, pH 6.8, 37 °C)","relative concentration compared to the initial value ([1]; 81 h, pH 7.4, 37 °C)","half-life at 100 µM ([1]; NaCl/HCl buffer, pH 1.2, 37 °C)","degradation rate constant k ([1]; pH 1.2, 37 °C)","degradation rate constant k ([1]; pH 6.8, 37 °C)","half-life at 100 µM [1, 3]","Papp at 4 h, 100 µM (PAMPA-GI)","logPe PAMPA-GI (n = 9) (PAMPA-GI; donor pH 6.8, acceptor pH 7.4, 37 °C, 4 h, Pe in cm/s, n.d. = not detected in the acceptor phase)",SMILES,"half-life at 100 µM ([1]; PBS, pH 7.4, 37 °C)","degradation rate constant k ([1]; pH 7.4, 37 °C)",antioxidant activity (in words) [2],"aqueous stability at pH 1.2, 6.8, 7.4 (in words) [1]"
101.7 ± 4.2 ^a %,105.2 ± 3.9 ^a %,102.0 ± 0.9 ^a %,100.7 ± 5.1 ^a %,101.9 ± 6.4 ^a %,101.5 ± 1.1 ^a %,,,,,3.47 ×10⁻⁶ cm/s,,"O=C1CCc2ccc(O)c(c2)-c2cc(ccc2O)C[C@H](O)[C@H](O)[C@H]1O [Compound 2, carpinontriol B]",,,only weak antioxidant activity,remained intact for the whole study at all pH values; also recorded: stable at all three studied biorelevant pH values
100.6 ± 6.9 ^a %,98.9 ± 0.8 ^a %,82.6 ± 7.7 ^#b %,83.4 ± 5.3% and 83.4 ± 5.3 ^#b %,93.2 ± 2.0% and 93.2 ± 2.0 ^#ab %,46.7 ± 4.7 %,298 h,0.00232 h⁻¹,0.000838 h⁻¹,827 h,6.03 ×10⁻⁶ cm/s,,"O=C1CCc2ccc(O)c(c2)-c2cc(ccc2O)C[C@@H](O)[C@H](O)C1 [Compound 3, giffonin X]",81.6 h,0.00849 h⁻¹,,
68.5 ± 4.5%,105.8 ± 2.6 ^a %,102.0 ± 3.7 ^a %,31.0 ± 7.0%,88.9 ± 2.0%,103.1 ± 2.2 ^a %,54.4 h,0.0127 h⁻¹,0.00142 h⁻¹,488 h,,not detected in the acceptor phase,"O=C1CCC(=O)C(O)Cc2ccc(O)c(c2)-c2cc(ccc2O)C1 (stereo not drawn) [Compound 4, 3,12,17-trihydroxytricyclo [12.3.1.1^2,6]nonadeca-1(18),2(19),3,5,14,16-hexaene-8,11-dione]",,,,stable only at pH 7.4

SMILES,"relative concentration compared to the initial value ([1]; 9 h, pH 1.2, 37 °C)","relative concentration compared to the initial value ([1]; 9 h, pH 6.8, 37 °C)","relative concentration compared to the initial value ([1]; 9 h, pH 7.4, 37 °C)","relative concentration compared to the initial value ([1]; 81 h, pH 1.2, 37 °C)","relative concentration compared to the initial value ([1]; 81 h, pH 6.8, 37 °C)","relative concentration compared to the initial value ([1]; 81 h, pH 7.4, 37 °C)","half-life at 100 µM ([1]; NaCl/HCl buffer, pH 1.2, 37 °C)","degradation rate constant k ([1]; pH 1.2, 37 °C)","degradation rate constant k ([1]; pH 6.8, 37 °C)","half-life at 100 µM [1, 3]","Papp at 4 h, 100 µM (PAMPA-GI)","logPe PAMPA-GI (n = 9) (PAMPA-GI; donor pH 6.8, acceptor pH 7.4, 37 °C, 4 h, Pe in cm/s, n.d. = not detected in the acceptor phase)","half-life at 100 µM ([1]; PBS, pH 7.4, 37 °C)","degradation rate constant k ([1]; pH 7.4, 37 °C)",antioxidant activity (in words) [2],"aqueous stability at pH 1.2, 6.8, 7.4 (in words) [1]"
"O=C1C[C@H](O)[C@@H](O)Cc2ccc(O)c(c2)-c2cc(ccc2O)C[C@H]1O [Compound 1, carpinontriol A]",97.1 ± 8.9 ^a %,97.4 ± 1.5% and 97.4 ± 1.5 ^#a %,96.9 ± 1.2 ^a %,70.5 ± 2.6% and 70.5 ± 2.6 ^#b %,75.3 ± 3.0% and 75.3 ± 3.0 ^#b %,71.5 ± 5.2% and 71.5 ± 5.2 ^#b %,167 h,0.00415 h⁻¹,0.00365 h⁻¹,190 h,0.562 ×10⁻⁶ cm/s,,166 h,0.00419 h⁻¹,only weak antioxidant activity,
